The values that follow come from patent US6451828B1, “Selective inhibition of glutaminase by bis-thiadiazoles” (priority 2000, dated 2002).

The term IC50 denotes the concentration that gives 50% inhibition.

One test has as its system isolated neurons.
Experiment: not given
The following applies: Dugan et al., 1995; read-out: IC50 for toxicity on isolated neurons; cited from earlier work.
Take `N[C@@H](CCC(=O)O)C(=O)O` [glutamate]: the IC50 was 5 to 10 µM.

The test system of a further test is microglia (BV-2) cells. Kind of test: Inhibition of microglial glutamate secretion.
Conditions: not given
The class given is cell-based. As to the method:
As described in Wood, glutamate efflux from microglia is dependent on the presence of added external glutamine. […] Therefore, the concentration of glutamate in the culture medium can be used directly as a measure of glutamate production by these cells.
In assaying the invention compounds, microglia (BV-2) cells were cultured using standard methods, as described in Example 4. On the day of the experiment, cells were incubated in glutamine free medium for 1 to 1.5 hours, then glutamine and test compounds, dissolved in glutamine free medium, were added. Aliquots were removed at 2 h and 4 h for glutamate analysis.
Inhibition of Microglial Glutamate Secretion
BV-2 cells were cultured in 24 well plates using Dulbeccos minimal essential medium containing 10% heat inactivated fetal bovine serum, and grown to 70-80% confluency before use. On the day of the experiment, cells were placed in glutamine free medium for 1 to 1.5 hours. […] This solution was used to replace one half of the 0.5 mL culture medium volume at the end of the glutamine free incubation. Aliquots of 10 μL medium were removed at 2 h and 4 h and placed in 96 well microtiter plates with 90 μL DMF/water (1:9) for glutamate analysis.
`[N-]=[N+]=CC(=O)CC[C@H](N)C(=O)O` [DON, 6-diazo-5-oxo-L-norleucine, reference compound]: the “Glutamine dependent glutamate efflux from microglia” value was “inhibited”.

In a further test the target is T1, human kidney glutaminase (Homo sapiens, UniProt O94925).
T1 construct: made in house; host or cells: SF9 insect cells (alternatively HEK human kidney cells); cell lysate
T1 sequence (O94925 55-669): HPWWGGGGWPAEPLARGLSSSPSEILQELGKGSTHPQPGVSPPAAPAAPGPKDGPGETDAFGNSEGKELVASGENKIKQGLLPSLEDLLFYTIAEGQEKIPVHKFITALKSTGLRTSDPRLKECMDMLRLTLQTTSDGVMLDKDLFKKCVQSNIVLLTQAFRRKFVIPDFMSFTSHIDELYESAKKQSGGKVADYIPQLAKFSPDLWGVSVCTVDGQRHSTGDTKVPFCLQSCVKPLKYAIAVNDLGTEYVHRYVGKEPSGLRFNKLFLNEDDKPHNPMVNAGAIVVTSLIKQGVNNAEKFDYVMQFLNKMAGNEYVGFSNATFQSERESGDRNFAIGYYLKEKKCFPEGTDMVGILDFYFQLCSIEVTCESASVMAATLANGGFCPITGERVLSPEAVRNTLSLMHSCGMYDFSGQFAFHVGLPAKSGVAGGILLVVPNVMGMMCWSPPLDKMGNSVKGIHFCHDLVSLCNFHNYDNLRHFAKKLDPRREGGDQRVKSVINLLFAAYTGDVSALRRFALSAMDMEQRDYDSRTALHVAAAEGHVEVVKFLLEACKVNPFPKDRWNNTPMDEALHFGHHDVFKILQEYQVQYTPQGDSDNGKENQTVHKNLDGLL
Briefly: Glutaminase inhibition: cell free assay. The class given is biochemical.
Conditions: not given
On the procedure: Compounds of formula I were tested for inhibition of human kidney glutaminase as described in Example 2.
Glutaminase Inhibition: Cell Free Assay
Glutaminase gene-transfected SF9 cells were collected in a 50-mL polypropylene conical tube by centrifugation at 500×g for 10 min (Eppendorf Centrifuge 5810R, F34-6-38 rotor). The supernatant was discarded, and the cell pellet was stored at −80° C. For preparation of the lysate, the cells were thawed on ice and resuspended by pipetting in 0.8 mL cold lysis buffer with 0.5 mM 4-(2-aminoethyl)- benzenesulfonyl fluoride (AEBSF), a serine protease inhibitor. The suspension was stored in ice for 20 min, then subjected to two freeze-thaw cycles (liquid nitrogen followed by a room temperature water bath).
The volume of the cell homogenate was measured, and 1/3 volume of 1 M sucrose was added, to give a final concentration of 0.25 M sucrose. Aliquots 100 μL in volume were placed in 1.5 mL microtubes and stored at −80° C.
Alternatively, HEK (human kidney) cells were used. The medium was removed by aspiration, 5 mL PBS/1 mM EDTA was added, and the culture was incubate for 3 min to allow cells to detach. The cells were collected in a 50-mL conical tube using Eppendorf Centrifuge 5810R, F34-6-38 rotor, and spun at 200×g for 5 min. The supernatant was discarded, and the cell pellet was resuspended pipetting (approximately 0.12 g wet weight) in 0.3 mL lysis buffer with 0.5 mM AEBSF. The tube was left in ice for 20 min. […] subjected to two freeze-thaw cycles as described above. Aliquots 100 μL in volume were placed in 1.5 mL microtubes and stored at −80° C.
The activity of the enzyme was determined colorimetrically. One unit of enzyme activity is defined as the amount of enzyme required to generate net OD 540nm=0.6 in a total reaction volume of 220 μL in one hour at room temperature.
Assay plates were prepared containing 2 μL test compound in DMSO/well. The enzyme was diluted to 1 unit (liver) or 0.8 unit (kidney)/100 μL in glutaminase assay buffer, and 100 μl diluted enzyme was added to each well of the assay plate by Multidrop (Labsystems). The contents were mixed by shaking at full speed for 1 min on TiterMix 100 (Brinkmann). The plates were preincubated at room temperature (RT) for 20 min to allow binding of test compounds to glutaminase, and 50 μL glutamine solution (7 mM in assay buffer) was added to each well by Multidrop. The contents were shaken at full speed for 30 sec on TiterMix 100 (Brinkmann), and the plates were then incubated at RT for 60 min (liver) or 90 min (kidney). To stop the reactions, 20 μL HCl (0.3 N) was added to each well by Multidrop and mixed immediately by shaking for 30 sec on TiterMix 100.
For quantification, glutamate (formed by glutaminase-catalyzed hydrolysis of glutamine) is oxidized to 2-oxoglutarate by a second enzyme, glutamate dehydrogenase (GDH), with the concomitant production of the reduced form of nicotinamide adenine dinucleotide (NADH). Reduction of nitro blue tetrazolium (NBT) in the assay solution by NADH, catalyzed by phenazine methosulphate (PMS), results in the formation of a blue-purple formazan. The absorption of formazan at 540 nm is linearly proportional to the concentration of glutamate up to 200 μM.
NBT/GDH reagent (50 μl) was added to each well by Multidrop and mixed by shaking for 30 sec on TiterMix 100, and the plates were incubated at RT for 20 min to allow color formation by the GDH reaction. Glutamate concentration was determined from formazan concentration as determined by reading OD540 nm on a SpectraMax 340.
For `CCOC(=O)Nc1nnc(CCSCCc2nnc(NC(=O)OCC)s2)s1` [SNX-1852], the IC50 was 1.78 µM.

Turning to `O=C(Nc1nnc(CCSCCc2nnc(NC(=O)c3cccs3)s2)s1)c1cccs1` [SNX-1837], the IC50 came out at 0.39 µM.

`COc1ccc(C(=O)Nc2nnc(CCSCCc3nnc(NC(=O)c4ccc(OC)cc4)s3)s2)cc1` [SNX-1832] showed an IC50 of 0.46 µM.

`COc1ccccc1C(=O)Nc1nnc(CCSCCc2nnc(NC(=O)c3ccccc3OC)s2)s1` [SNX-1855] came in with an IC50 of 4.9 µM.

As to `O=C(Nc1nnc(CCSCCc2nnc(NC(=O)c3ccco3)s2)s1)c1ccco1` [SNX-1836], the IC50 came out at 1.12 µM.

`O=C(Nc1nnc(CCSCCc2nnc(NC(=O)c3ccccc3)s2)s1)c1ccccc1` [SNX-1830]: the IC50 was 1.06 µM.

Regarding `Cc1cccc(C(=O)Nc2nnc(CCSCCc3nnc(NC(=O)c4cccc(C)c4)s3)s2)c1` [SNX-1831], half-maximal inhibition (IC50) required 1.13 µM.

`CC(C)(C)C(=O)Nc1nnc(CCSCCc2nnc(NC(=O)C(C)(C)C)s2)s1` [SNX-1851] registered an IC50 of 1.65 µM.
